Data as given in patent US20060111289A1, “Compositions and methods of using Alpha-fetoprotein growth inhibitory peptides” (Serometrix, LLC,, priority 2004, published 2006).
“Also recorded” adds a separate entry of the source.

What was measured:
[1] = tested on: 6WI-1 mammary tumor cells; experiment: 6WI-1 mammary tumor in 15-day old mouse pups (6 day assay); assay type: in vivo; conditions: mouse, in vivo
From the text: As an alternative model of the 6WI-I mammary tumor in adult mice, an inocula of 1×10^6 tumor cells injected into 15-day old mouse pups provided a 6 day rather than a 12 day assay and replicated the same tumor growth suppression by GIP.

MCF-7 and GI-101 cells = experiment: ATP luminescence cytostatic assay (6 days); assay type: cell-based, human; conditions: peptide 10^−12 to 10^−8 M
From the text: FIG. 2 presents exemplary data for both in vivo and in vitro growth suppressive activities of the GIP-derived P149 and control peptides are depicted in GI-101 human ductal breast carcinoma and in MCF-7 human glandular breast carcinoma. • Panels A and A2: GI-101 and MCF-7 xenograft in nude mice administered P149 time-release pellets for 60 days and 30 days, respectively (N=5 mice/group). • Panels B and B2: GI-101 and MCF-7 in cell cultures treated with P149 and P187 at concentrations from 10-8 to 10-12 M for 6 days and assayed by ATP luminescence reagent employing a luciferin-luciferase system. The ATP assay, used to distinguish between cytostasis versus cytotoxicity, was used to confirm that P149 was cytostatic in its cell inhibitory activity at 6 days (see text for details).
In order to confirm whether P149 was indeed cytostatic, and not cytotoxic, an ATP-based cytostatic assay was performed which measures the decrease in cytosolic ATP during drug (i.e., for example, GIP peptide) treatment. This ATP luminescence assay has long been employed to distinguish between cytostatic versus cytotoxic chemotherapeutic sensitivity of drugs. […] After incubation of the cell cultures for 6 days, cytosolic ATP was extracted, stabilized, and quantitated from a standard curve produced from Berthold LB-96P luminometer readings using a luciferin-luciferase counting reagent.

What does the source list for “LSENKLLACGEGAANIIIGHLCIRHEMTPVNPGV (listed as Homo sapiens) [P187]”?
Growth inhibitory potency in the mouse pup model compared with P149 [1]: slightly less growth inhibitory potency; Growth inhibition / decrease in cytosolic ATP in the ATP luminescence assay (MCF-7 and GI-101 cells): significantly different; also recorded: equally responsive as P149 at 10^−8 M
